{"source": "patent US10077268B2", "about": "“FXR agonists and methods for making and using” (Salk Institute for Biological Studies, priority 2014, dated 2018)", "key": {"[1]": {"system": "serum bile acid composition", "test": "Serum bile acid composition by mass spectrometry", "assay_type": "in vivo, mice", "method": "Mice fed a HFD for 14 weeks were maintained on a HFD and treated with vehicle or fexaramine (100 mg/kg/day per os for 5 week). Serum bile acid composition was determined by mass spectrometry. N.D not determined."}, "[2]": {"system": "gene and protein expression in BAT, ileum, liver and adipose tissues", "test": "Tissue gene and protein expression in treated DIO mice", "assay_type": "in vivo", "method": "(§1) Mice were fed HFD for 14 weeks and then administered vehicle or fexaramine (100 mg/kg) daily by oral administration for 5 weeks with HFD. Data represent the mean±STD. Statistical analysis was performed with the Student's t test (*p<0.05, **p<0.01).\nFIGS. 7A-7H show a comparative expression chart and bar charts illustrating that fexaramine increased endogenous FGF15 signaling and changes in BA composition. Mice were fed HFD for 14 weeks and then administered daily oral injections of vehicle or fexaramine (100 mg/kg) for 5 weeks with HFD. In the bar graphs, open bars represent vehicle treatment and solid bars represent fexaramine treatment, and data represent the mean±STD. Statistical analysis was performed with the Student's t test (*p<0.05, **p<0.01).\nMice were fed on HFD for 14 weeks and subsequently subjected to daily PO injection of vehicle or fexaramine (100 mg/kg) for 5 weeks with HFD. In the bar graphs, open bars are vehicle, solid bars of fexaramine, and data represent the mean±STD. Statistical analysis was performed with the Student's t test (*p<0.05, **p<0.01).\nMice were fed HFD for 14 weeks and then subjected to daily PO injection of vehicle (open bar in bar graphs) or fexaramine (100 mg/kg) (solid bar in bar graphs) for 5 weeks with HFD."}, "DIO mice": {"system": "DIO mice", "test": "Hyperinsulinemic-euglycemic clamp in DIO mice", "assay_type": "in vivo", "method": "FIGS. 15I-15K are a line graph and two bar graphs showing the effect of fexaramine treatment on body weight, insulin-stimulated GDR, and fasting insulin levels. Mice were fed HFD for 14 weeks, and then administered daily oral injections of vehicle or fexaramine (100 mg/kg) for 3 weeks with HFD. The mice treated with fexaramine were initially heavier (by 2-3 grams). Three weeks after treatment, a clamp study was performed on the mice. Data represent the mean±STD. Statistical analysis was performed with the Student's t test (*p<0.05, **p<0.01)."}, "[3]": {"system": "diet-induced obesity (DIO) mice", "test": "Chronic oral treatment of diet-induced obesity (DIO) mice", "assay_type": "in vivo", "conditions": "for glucose tolerance and insulin sensitivity (GTT, ITT): DIO mice, PO 5 weeks", "method": "FIGS. 2A-2G are graphs illustrating the reduction of diet-induced obesity and improvement in metabolic homeostasis with fexaramine Mice were fed a high fat diet (HFD) for 14 weeks and then administered daily oral injections of vehicle (open boxes) or fexaramine (100 mg/kg) (solid boxes) for 5 weeks with HFD. Data represent the mean±STD. Statistical analysis was performed with the Student's t test (*p<0.05, **p<0.01).\nFIG. 4A is a line graph showing the effects of fexaramine at various dosage levels on the body weight of mice fed a HFD for 14 weeks and then administered daily oral injections of vehicle or fexaramine (10, 50 or 100 mg/kg) for 5 weeks with HFD. Data represent the mean±STD. Statistical analysis was performed with the Student's t test (*p<0.05, **p<0.01).\nas §1\nThe physiological effects of fexaramine in established obesity (diet-induced obesity, DIO) models were evaluated. C57BL/6J mice were fed a diet of 60% fat for 14 weeks and then treated PO with vehicle or fexaramine (100 mg/kg) for 5 weeks."}, "human TGR5": {"biological_target": "T1, human TGR5 (Homo sapiens, UniProt Q8TDU6)", "T1 construct": "expressed in transfected cells; host or cells: HEK293", "T1 sequence (Q8TDU6 1-330)": "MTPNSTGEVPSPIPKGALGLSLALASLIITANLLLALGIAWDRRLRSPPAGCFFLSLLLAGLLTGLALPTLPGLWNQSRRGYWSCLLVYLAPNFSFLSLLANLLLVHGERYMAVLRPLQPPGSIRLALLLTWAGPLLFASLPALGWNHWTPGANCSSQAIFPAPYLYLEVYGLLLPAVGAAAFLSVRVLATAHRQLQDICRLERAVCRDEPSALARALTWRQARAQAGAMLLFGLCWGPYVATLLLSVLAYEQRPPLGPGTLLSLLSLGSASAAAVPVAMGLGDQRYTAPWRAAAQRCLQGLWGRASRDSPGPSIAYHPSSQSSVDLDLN", "test": "cAMP-response element luciferase reporter in HEK293 cells transfected with human TGR5", "assay_type": "cell-based", "method": "HEK293 cells were transfected with expression vectors for cAMP-response element luciferase, β-galactosidase and human TGR5. 24 hours after transfection, cells were treated with fexaramine or INT-777 (a TGR5 agonist)."}, "normal chow-fed mice": {"system": "normal chow-fed mice", "test": "Chronic oral treatment of normal chow-fed mice", "assay_type": "in vivo", "method": "FIGS. 3A-3D are line graphs and a bar graph showing the effects of fexaramine administration in normal chow-fed mice. The mice were treated with vehicle (left bar) or fexaramine (100 mg/kg) (right bar) via PO for 5 weeks. Data represent the mean±STD. Statistical analysis as performed with the Student's t test (*p<0.05, **p<0.01).\nTo investigate the physiological effects of intestinal FXR activation by fexaramine, mice were subjected to chronic fexaramine (100 mg/kg Fex) PO treatment for 5 weeks."}, "FXR-null mice": {"system": "FXR-null mice", "test": "HFD-fed FXR-null mice", "assay_type": "in vivo", "conditions": "100 mg/kg 5 weeks", "method": "Data represent the mean±SD. Statistical analysis was performed with the Student's t test. *p<0.05, **p<0.01."}}, "note": "“Also recorded” adds a separate entry of the source. Read-outs that look alike come from different tables or passages of the source."}
{"smiles": "COC(=O)/C=C/c1cccc(N(Cc2ccc(-c3ccc(N(C)C)cc3)cc2)C(=O)C2CCCCC2)c1", "note": "[fexaramine]", "values": [{"measurement": "bile acid pool size", "setting": "[1]", "result": "reducing the bile acid pool size"}, {"measurement": "fraction of lithocholic acid among circulating bile acids", "setting": "[1]", "result": "increasing the fraction of the secondary bile acid, lithocholic acid"}, {"measurement": "fraction of taurocholic acid among circulating bile acids", "setting": "[1]", "result": "decreasing the fraction of taurocholic acid"}, {"measurement": "ratio of unconjugated to conjugated cholic acid", "setting": "[1]; 100 mg/kg PO 5 weeks", "result": "remarkably increased"}, {"measurement": "D102, downstream target of TGR5, in brown adipose tissue", "setting": "[2]; BAT", "result": "induce"}, {"measurement": "PKA activity", "setting": "[2]; BAT", "result": "increased PKA activity"}, {"measurement": "expression of ERRy, PGC-1α, PGC-1β and target genes in BAT", "setting": "[2]; BAT", "result": "induction"}, {"measurement": "phosphorylation level of p38", "setting": "[2]; BAT", "result": "increased the phosphorylation level of p38"}, {"measurement": "FGF15 expression in intestine", "setting": "[2]; RNA-Seq, ileal FXR target genes", "result": "dramatically up-regulated"}, {"measurement": "OXPHOS activity, transcriptional changes in inguinal, gonadal and brown adipose depots", "setting": "[2]; RNA-sequencing", "result": "selectively enhance OXPHOS activity only in BAT"}, {"measurement": "HSL phosphorylation and serum levels of free fatty acids", "setting": "[2]; adipose depots, serum", "result": "pronounced increase"}, {"measurement": "serum catecholamine levels and β3-adrenergic receptor expression", "setting": "[2]; chronic treatment", "result": "increased serum catecholamine levels and β3-adrenergic receptor expression"}, {"measurement": "S6K phosphorylation (mTORC1 pathway)", "setting": "[2]; gonadal WAT", "result": "reduced S6K phosphorylation"}, {"measurement": "levels of IKK-ε and TANK-binding kinase 1 (TBK1)", "setting": "[2]; gonadal adipose tissue", "result": "reduced levels"}, {"measurement": "expression of brown fat-like signature genes", "setting": "[2]; inguinal adipose tissue", "result": "increased the expression"}, {"measurement": "respiratory capacity in the stromal vascular fraction", "setting": "[2]; inguinal adipose tissue", "result": "increased respiratory capacity"}, {"measurement": "abundance of multi-locular, UCP1-expressing adipocytes", "setting": "[2]; inguinal adipose tissue, immunohistochemistry", "result": "substantial increase"}, {"measurement": "expression of mucosal defense genes Occludin and Muc2", "setting": "[2]; intestine", "result": "increased expression"}, {"measurement": "expression of CYP8B1 and CYP27A1", "setting": "[2]; liver", "result": "not affected"}, {"measurement": "expression of liver FXR target genes SHP and BSEP", "setting": "[2]; liver", "result": "not altered"}, {"measurement": "hepatic CYP7A1 expression, mRNA and protein level", "setting": "[2]; liver", "result": "significantly repressed"}, {"measurement": "hepatic expression of gluconeogenic and lipogenic genes", "setting": "[2]; liver", "result": "reduced hepatic expression"}, {"measurement": "circulating FGF15", "setting": "[2]; serum", "result": "increase in circulating FGF15"}, {"measurement": "insulin-mediated suppression of HGP", "setting": "DIO mice; compared to control DIO mice", "result": "marked increase"}, {"measurement": "basal HGP, GDR, IS-GDR, FFA suppression and fasting insulin levels", "setting": "DIO mice; weight-matched cohorts", "result": "No differences"}, {"measurement": "ambulatory counts", "setting": "[3]; 100 mg/kg PO 5 weeks", "result": "more active than control mice"}, {"measurement": "intestinal toxicity (histology of ileum and colon)", "setting": "[3]; 100 mg/kg PO 5 weeks", "result": "no signs of intestinal toxicity"}, {"measurement": "overall fat mass (MRI)", "setting": "[3]; 100 mg/kg PO 5 weeks", "result": "reduced overall fat mass"}, {"measurement": "respiratory exchange ratio", "setting": "[3]; 100 mg/kg PO 5 weeks", "result": "No changes"}, {"measurement": "serum lactate levels", "setting": "[3]; 100 mg/kg PO 5 weeks", "result": "significantly decreased"}, {"measurement": "serum levels of inflammatory cytokines TNFα, IL-1α, IL-1β, IL-17 and MCP-1", "setting": "[3]; 100 mg/kg PO 5 weeks", "result": "markedly decreased"}, {"measurement": "wet weights of subcutaneous (inguinal) and visceral (gonadal and mesenteric) adipose depots", "setting": "[3]; 100 mg/kg PO 5 weeks", "result": "significant reductions"}, {"measurement": "serum lactate levels", "setting": "[3]; 100 mg/kg PO 5 weeks, listed as Fex", "result": "significantly reduced"}, {"measurement": "prevention of weight gain, dose dependence", "setting": "[3]; 10, 50 or 100 mg/kg PO 5 weeks", "result": "dose-dependent manner"}, {"measurement": "glucose tolerance and insulin sensitivity (GTT, ITT)", "setting": "[3]", "result": "improved glucose clearance; also recorded: improved insulin sensitivity"}, {"measurement": "glucose tolerance and insulin sensitivity (GTT, ITT)", "setting": "[3]; listed as Fex", "result": "dose-dependent improvements"}, {"measurement": "weight gain", "setting": "[3]; HFD 14 weeks, then 100 mg/kg PO 5 weeks", "result": "prevented weight gain"}, {"measurement": "cross-sectional area of adipocytes in visceral depots (gonadal, mesenteric)", "setting": "[3]; chronic treatment", "result": "markedly reduced"}, {"measurement": "weight gain at the highest dose", "setting": "[3]; highest dose", "result": "almost completely abrogated"}, {"measurement": "accumulation of lipid vesicles in brown adipose tissue (BAT)", "setting": "[3]; histology", "result": "markedly reduced"}, {"measurement": "hepatic triglycerides", "setting": "[3]; liver", "result": "marked decrease"}, {"measurement": "lipid droplets in liver tissue (histology)", "setting": "[3]; liver", "result": "reduction in lipid droplets"}, {"measurement": "serum alanine aminotransferase (ALT) levels", "setting": "[3]; serum", "result": "decreased"}, {"measurement": "glucose, insulin, leptin, cholesterol and resistin levels", "setting": "[3]; serum, 100 mg/kg PO 5 weeks", "result": "reduced glucose, insulin, leptin, cholesterol, and resistin levels"}, {"measurement": "food intake", "setting": "[3]; versus vehicle-treated control mice", "result": "not attributable to difference in food intake"}, {"measurement": "carbon dioxide production (VCO2)", "setting": "[3]; weight-matched DIO mice", "result": "exhaled more carbon dioxide"}, {"measurement": "oxygen consumption (VO2)", "setting": "[3]; weight-matched DIO mice", "result": "consistently higher oxygen consumption"}, {"measurement": "activation of TGR5", "setting": "human TGR5", "result": "fails to activate TGR5"}, {"measurement": "activation of TGR5", "setting": "human TGR5; listed as Fex", "result": "does not activate"}, {"measurement": "glucose homeostasis in normal chow-fed mice", "setting": "normal chow-fed mice; across a range of doses", "result": "no effects observed"}, {"measurement": "weight gain, basal metabolic activity and glucose tolerance", "setting": "normal chow-fed mice; chow-fed, 100 mg/kg PO 5 weeks", "result": "indistinguishable from vehicle-treated mice"}, {"measurement": "Fex-induced changes in gene expression and improvements in metabolic homeostasis in FXR null mice", "setting": "FXR-null mice", "result": "abrogated"}]}
